Laboratory results reported in patent US11053204B2, “Pyrimidinyloxy benzene derivatives as herbicides” (FMC Corporation, priority 2015, dated 2021).

Experiments:
Assay type in all cases: in vivo
[1] = test system: pigweed (Amaranthus retroflexus); test: Test C postemergence, plant response rating; conditions: for Pigweed plant response rating / pest or weed control at 62 g/ha / pest or weed control at 125 g/ha: scale 0 to 100 (0 no effect, 100 complete control)
Procedure, shortened: (§1)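 After sowing in loam–sand blend or silt loam, pots were sprayed preemergence; separately grown 1- to 4-leaf plants were sprayed postemergence. Following 13 to 15 d under greenhouse conditions, injury was rated visually on a 0 to 100 scale.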

[2] = test system: pigweed (Amaranthus retroflexus); test: Test C preemergence, plant response rating; conditions: for Plant response rating, Pigweed: Preemergence; for Pigweed plant response rating: preemergence
[3] = test system: barnyardgrass (Echinochloa crus-galli); test: Test C preemergence, plant response rating; conditions: for pest or weed control at 16 g/ha / pest or weed control at 31 g/ha / pest or weed control at 62 g/ha / pest or weed control at 125 g/ha: Echinochloa crus-galli, pre-emergence; for pest or weed control at 16 g/ha / pest or weed control at 31 g/ha / pest or weed control at 62 g/ha / pest or weed control at 125 g/ha / Plant response rating, Barnyardgrass: Preemergence; for Barnyardgrass plant response rating: preemergence
[4] = test system: galium (catchweed bedstraw, Galium aparine); test: Test C preemergence, plant response rating
[5] = test system: johnsongrass (Sorghum halepense); test: Test C postemergence, plant response rating; conditions: for Plant response rating, Johnsongrass: scale 0 to 100; for Johnsongrass plant response rating: scale 0 to 100 (0 no effect, 100 complete control)
Procedure, shortened: as §1

[6] = test system: johnsongrass (Sorghum halepense); test: Test C preemergence, plant response rating
[7] = Amaranthus retroflexus, post-emergence, 16 g ai/ha, scale 0 to 100
[8] = Amaranthus retroflexus, post-emergence, 31 g ai/ha, scale 0 to 100
[9] = Amaranthus retroflexus, post-emergence, 62 g ai/ha
[10] = Amaranthus retroflexus, post-emergence, 125 g ai/ha

Compound	Plant response rating, Pigweed ([1]; 31 g ai/ha, scale 0 to 100)	Pigweed plant response rating ([1]; 62 g ai/ha)	Pigweed plant response rating ([1]; 125 g ai/ha)	Plant response rating, Pigweed ([2]; 16 g ai/ha, scale 0 to 100)	Plant response rating, Pigweed ([2]; 31 g ai/ha, scale 0 to 100)	pest or weed control at 16 g/ha [1, 7] [%]	pest or weed control at 31 g/ha [1, 8] [%]	pest or weed control at 16 g/ha ([3]; 16 g ai/ha, scale 0 to 100) [%]	pest or weed control at 31 g/ha ([3]; 31 g ai/ha, scale 0 to 100) [%]	Plant response rating, Pigweed ([2]; 125 g ai/ha, scale of 0 to 100)	Plant response rating, Pigweed ([2]; 62 g ai/ha, scale 0 to 100)	pest or weed control at 62 g/ha [1, 9] [%]	pest or weed control at 125 g/ha [1, 10] [%]	pest or weed control at 62 g/ha ([3]; 62 g ai/ha, scale of 0 to 100) [%]	pest or weed control at 125 g/ha ([3]; 125 g ai/ha, scale of 0 to 100) [%]	Plant response rating, Galium ([4]; 31 g ai/ha, scale 0 to 100)	Plant response rating, Galium ([4]; 62 g ai/ha, scale of 0 to 100)	Plant response rating, Galium ([4]; 125 g ai/ha, scale of 0 to 100)	further results
N#CCCOC(=O)c1c(Br)cccc1Oc1ncc(Cl)cn1 [Compound 7]	40	60	70																Plant response rating, Pigweed ([1]; 16 g ai/ha, scale 0 to 100): 35
CCCOC(=O)c1c(Br)cccc1Oc1ncc(Cl)cn1 [Compound 13, propyl 2-bromo-6-[(5-chloro-2-pyrimidinyl)oxy]benzoate]				5	60	75	70	10	40										Pigweed plant response rating ([2]; 4 g ai/ha, scale 0 to 100): 5; Pigweed plant response rating ([2]; 8 g ai/ha, scale 0 to 100): 10; pest or weed control at 4 g/ha ([1]; Amaranthus retroflexus, post-emergence, 4 g ai/ha, scale of 0 to 100): 30%; pest or weed control at 8 g/ha ([1]; Amaranthus retroflexus, post-emergence, 8 g ai/ha, scale of 0 to 100): 60%; Barnyardgrass plant response rating ([3]; 4 g ai/ha, scale 0 to 100): 0; Barnyardgrass plant response rating ([3]; 8 g ai/ha, scale 0 to 100): 0
O=C(OCCC(F)(F)F)c1c(Cl)cccc1Oc1ncc(Cl)cn1 [Compound 15, 3,3,3-trifluoropropyl 2-chloro-6-[(5-chloro-2-pyrimidinyl)oxy]benzoate]				98	100	90	90	10	85	100	100	95	98	100	100				
CC(CC(F)(F)F)OC(=O)c1c(Br)cccc1Oc1ncc(Cl)cn1 (centres unmarked) [Compound 16, 3,3,3-trifluoro-1-methylpropyl 2-bromo-6-[(5-chloro-2-pyrimidinyl)oxy]benzoate]				0	0	50	75	0	15	95	50	85	50	30	75				
O=C(OCCCC(F)(F)F)c1c(Br)cccc1Oc1ncc(Cl)cn1 [Compound 20, 4,4,4-trifluorobutyl 2-bromo-6-[(5-chloro-2-pyrimidinyl)oxy]benzoate]				55	55	85	95	0	5	100	100	98	95	30	85	0	80	95	Plant response rating, Galium ([4]; 16 g ai/ha, scale 0 to 100): 10
C=CCCOC(=O)c1c(Br)cccc1Oc1ncc(Cl)cn1 [Compound 21, 3-buten-1-yl 2-bromo-6-[(5-chloro-2-pyrimidinyl)oxy]benzoate]				5	55	85	75	10	55	100	98	90	90	90	98	0	5	100	
C=CCOC(=O)c1c(Br)cccc1Oc1ncc(Cl)cn1 [Compound 22, 2-propen-1-yl 2-bromo-6-[(5-chloro-2-pyrimidinyl)oxy]benzoate]						60	70					70	95						
O=C(OCC(F)(F)C(F)(F)F)c1c(Br)cccc1Oc1ncc(Cl)cn1 [Compound 23, 2,2,3,3,3-pentafluoropropyl 2-bromo-6-[(5-chloro-2-pyrimidinyl)oxy]benzoate]						60	75					70	85						Plant response rating, Johnsongrass ([5]; 16 g ai/ha): 0; Plant response rating, Johnsongrass ([5]; 31 g ai/ha): 15; Johnsongrass plant response rating ([5]; 62 g ai/ha): 15; Johnsongrass plant response rating ([5]; 125 g ai/ha): 20
N#Cc1cccc(Oc2ncc(Cl)cn2)c1C(=O)OCCC(F)(F)F [Compound 30]				90	95					100	100					10	60	85	Plant response rating, Johnsongrass ([6]; 16 g ai/ha, scale 0 to 100): 0; Plant response rating, Johnsongrass ([6]; 31 g ai/ha, scale 0 to 100): 0; Plant response rating, Johnsongrass ([6]; 62 g ai/ha, scale 0 to 100): 0; Plant response rating, Johnsongrass ([6]; 125 g ai/ha, scale of 0 to 100): 15; Plant response rating, Galium ([4]; 16 g ai/ha, scale 0 to 100): 80; Plant response rating, Barnyardgrass ([3]; 62 g ai/ha, scale of 0 to 100): 10; Plant response rating, Barnyardgrass ([3]; 125 g ai/ha, scale of 0 to 100): 25; Plant response rating, Barnyardgrass ([3]; 16 g ai/ha, scale 0 to 100): 10; Plant response rating, Barnyardgrass ([3]; 31 g ai/ha, scale 0 to 100): 15
O=C(OCC(F)(F)F)c1c(Br)cccc1Oc1ncc(Cl)cn1 [Compound 35]	70	90	98																Plant response rating, Johnsongrass ([5]; 16 g ai/ha): 0; Plant response rating, Johnsongrass ([5]; 31 g ai/ha): 5; Johnsongrass plant response rating ([5]; 62 g ai/ha): 10; Johnsongrass plant response rating ([5]; 125 g ai/ha): 10; Plant response rating, Pigweed ([1]; 16 g ai/ha, scale 0 to 100): 80
O=C(CCCC(F)(F)F)c1c(Br)cccc1Oc1ncc(Cl)cn1 [Compound 77]	98	100	100	85	100					100	100					0	98	98	Plant response rating, Galium ([4]; 16 g ai/ha, scale 0 to 100): 0; Plant response rating, Pigweed ([1]; 16 g ai/ha, scale of 0 to 100): 95; Plant response rating, Barnyardgrass ([3]; 62 g ai/ha, scale of 0 to 100): 98; Plant response rating, Barnyardgrass ([3]; 125 g ai/ha, scale of 0 to 100): 100; Plant response rating, Barnyardgrass ([3]; 16 g ai/ha, scale 0 to 100): 20; Plant response rating, Barnyardgrass ([3]; 31 g ai/ha, scale 0 to 100): 60
O=C(CCC(F)(F)F)c1c(Br)cccc1Oc1ncc(Cl)cn1 [Compound 92]	90	98	100		100					100	100								Plant response rating, Pigweed ([1]; 16 g ai/ha, scale of 0 to 100): 85; Plant response rating, Barnyardgrass ([3]; 125 g ai/ha, scale of 0 to 100): 100; Plant response rating, Barnyardgrass ([3]; 16 g ai/ha, scale 0 to 100): 35; Plant response rating, Barnyardgrass ([3]; 31 g ai/ha, scale 0 to 100): 85; Plant response rating, Barnyardgrass ([3]; 62 g ai/ha, scale 0 to 100): 98
